This data set relates to GENE-TOX genotoxicity assays, various organisms and cells. The experiment in a line: GENE-TOX mutagenicity studies. The conditions noted are these: for call: Assay Type: In vivo carcinogenicity studies.
[1] abbreviates: Species/Cell Type: Fischer rat embryo (RLV/1706) cells, Assay Type: Cell transformation, viral enhanced, Assay Code: CTR+, Evaluation Type: Evaluation A (Pre-1980).
Where [2] appears, read: Species/Cell Type: Mouse embryo (AKR/ME) cells, Assay Type: Cell transformation, Assay Code: CTK+, Evaluation Type: Evaluation A (Pre-1980).
The mark [3] stands for this setting: Species/Cell Type: Syrian hamster embryo (SA7/SHE) cells, Assay Type: Cell transformation, viral enhanced, Assay Code: CT7+, Evaluation Type: Evaluation A (Pre-1980).
Setting [4] is: Species/Cell Type: Human diploid fibroblasts, Assay Type: Unscheduled DNA synthesis (UDS) in vitro, DNA effects, Assay Code: UDH-, Evaluation Type: Evaluation A (Pre-1980).
The mark [5] stands for this setting: Species/Cell Type: Mammalian polychromatic erythrocytes, Assay Type: Micronucleus test, chromosome aberrations, Assay Code: MNT+, Evaluation Type: Evaluation B (Post-1980).
The mark [6] stands for this setting: Species/Cell Type: Nonhuman, Assay Code: CCG+, Evaluation Type: Evaluation A (Pre-1980).
Where [7] appears, read: Species/Cell Type: Syrian hamster embryo (SHE) cells, Assay Type: Cell transformation, clonal assay, Assay Code: CTC+, Evaluation Type: Evaluation A (Pre-1980).
The mark [8] stands for this setting: Species/Cell Type: Salmonella typhimurium (one or more of the five standard strains: TA98, TA100, TA1535, TA1537, and TA1538), Assay Type: Histidine reverse gene mutation, Ames assay, Assay Code: SAL+*, Activation: With metabolic activation, Evaluation Type: Evaluation A (Pre-1980).
Setting [9] is: Species/Cell Type: Escherichia coli polA (W3119 vs P3478), Assay Type: Rec-assay, DNA effects (bacterial DNA repair), Assay Code: RE1T, Evaluation Type: Evaluation A (Pre-1980).
Setting [10] is: Species/Cell Type: Saccharomyces cerevisiae, Assay Type: Mitotic recombination or gene conversion, Assay Code: YEH+/-*, Activation: With metabolic activation, Evaluation Type: Evaluation A (Pre-1980).
Setting [11] is: Species/Cell Type: Syrian hamster embryo (SHE) cells, Assay Type: Cell transformation, clonal assay, Assay Code: CTC-, Evaluation Type: Evaluation A (Pre-1980).

The values below come from PubChem BioAssay AID1259408 (Genetic Toxicology Data Bank (GENE-TOX), 2018).

Each structure is given as a SMILES string. The source made the active and inactive calls. The rule behind the calls is not given here.

As to `CN(C)c1ccc(N=Nc2ccc3ncccc3c2)cc1`, the mutagenic call by setting is: under setting [1], “active; positive”; under setting [2], “active; positive”.

On to `CC(C)C[C@H](NC(=O)N[C@H](C(=O)N[C@@H](CCC(N)=O)C(=O)N[C@@H](C)C=O)[C@@H]1CCNC(N)=N1)C(=O)O`, for which the mutagenic call by setting is: (Species/Cell Type: Human, Assay Type: Sister-chromatid exchange (SCE) in vitro, Assay Code: SC1T, Evaluation Type: Evaluation B (Post-1980)) “no conclusion”; (Species/Cell Type: Nonhuman, Assay Type: Sister-chromatid exchange (SCE) in vitro, Assay Code: SC2T, Evaluation Type: Evaluation B (Post-1980)) “no conclusion”.

With `C#CC(O)(c1ccccc1)c1ccccc1`, the mutagenic call (Species/Cell Type: Salmonella typhimurium (one or more of the five standard strains: TA98, TA100, TA1535, TA1537, and TA1538), Assay Type: Histidine reverse gene mutation, Ames assay, Assay Code: SALT, Evaluation Type: Evaluation A (Pre-1980)) is given as “no conclusion”.

For the compound `COc1cc(CNC(=O)CCCC/C=C/C(C)C)ccc1O`, the mutagenic call (Species/Cell Type: Mammalian polychromatic erythrocytes, Assay Type: Micronucleus test, chromosome aberrations, Assay Code: MNT+U, Dose Response: Unconfirmed positive response, Evaluation Type: Evaluation B (Post-1980)) is “active; positive”.

As to `CCOC(=O)N1CC1`, under “Species/Cell Type: Schizosaccharomyces pombe, Assay Type: Reverse gene mutation, Assay Code: YEZ+, Evaluation Type: Evaluation A (Pre-1980)”, the mutagenic call was “active; positive”.

Take `BrC(Br)C(Br)Br`: where the note is “Species/Cell Type: Escherichia coli polA (W3119 vs P3478), Assay Type: Rec-assay, DNA effects (bacterial DNA repair), Assay Code: RE1+, Evaluation Type: Evaluation A (Pre-1980)”, the mutagenic call is “active; positive”.

As for `Cc1cc(O)c2c(c1O)C(=O)C13C(=C2O)C(=O)C2C(O)C1C1C(O)C3C(=O)C3=C(O)c4c(O)cc(C)c(O)c4C(=O)C321` (stereo not drawn), the mutagenic call was “active; positive” (Species/Cell Type: Bacillus subtilis (H17 vs M45), Assay Type: Rec-assay, spot test, DNA effects (bacterial DNA repair), Assay Code: REW+, Evaluation Type: Evaluation A (Pre-1980)) and “active; positive” (Species/Cell Type: Human lymphocytes or leukocytes, Assay Type: Chromosome aberrations in vitro, Assay Code: CY7+, Evaluation Type: Evaluation A (Pre-1980)). The call (Species/Cell Type: Nonhuman, Assay Code: CCG+L, Evaluation Type: Evaluation A (Pre-1980)) is “active; positive”.

As for `C1=Cc2c3c1cccc3cc1ccc3ccccc3c21`, the mutagenic call (Species/Cell Type: Nonhuman, Assay Type: Sister-chromatid exchange (SCE) in vivo, Assay Code: SC3+D, Dose Response: With dose response, Evaluation Type: Evaluation B (Post-1980)) was “active; positive”.

Turning to `CC(=O)Oc1c2ccccc2c2ccc3cccc4ccc1c2c43`, under setting [3], the mutagenic call was “active; positive”.

With `CCCCCc1cc(O)c2c(c1)OC(C)(C)[C@@H]1CCC(C)=C[C@@H]21`, the mutagenic call runs as follows: under setting [1], “active; positive”; under setting [4], “inactive; negative”; (Species/Cell Type: Human lymphocytes or leukocytes, Assay Type: Chromosome aberrations in vivo, Assay Code: CY8-, Evaluation Type: Evaluation A (Pre-1980)) “inactive; negative”; (Species/Cell Type: Human lymphocytes, Assay Type: Sister-chromatid exchange (SCE) in vivo, Assay Code: SCY+, Evaluation Type: Evaluation B (Post-1980)) “active; positive”; (Species/Cell Type: Human, Assay Type: Sister-chromatid exchange (SCE) in vitro, Assay Code: SC1-, Evaluation Type: Evaluation A (Pre-1980)) “inactive; negative”; under setting [5], “active; positive”. Further, the mutagenic call runs as follows: (Species/Cell Type: Mammalian polychromatic erythrocytes, Assay Type: Micronucleus test, chromosome aberrations, Assay Code: MNTT, Evaluation Type: Evaluation A (Pre-1980)) “no conclusion”; (Species/Cell Type: Mouse, Sex: Male, Assay Type: Sperm morphology, Assay Code: SPI+, Evaluation Type: Evaluation A (Pre-1980)) “active; positive”.

Turning to `O=C1NCCN1c1ncc([N+](=O)[O-])s1`, the mutagenic call was “active; positive” (Species/Cell Type: Escherichia coli WP2, Assay Type: Tryptophan reverse gene mutation, Assay Code: WP2+D, Dose Response: With dose response, Evaluation Type: Evaluation A (Pre-1980)); “active; positive” (Species/Cell Type: Escherichia coli WP2 UVRA, Assay Type: Tryptophan reverse gene mutation, Assay Code: WPU+D, Dose Response: With dose response, Evaluation Type: Evaluation A (Pre-1980)); “inactive; negative” (Species/Cell Type: Human, Sex: Male, Assay Type: Sperm morphology, Assay Code: SPH-, Evaluation Type: Evaluation A (Pre-1980)); “active; positive” (Species/Cell Type: Neurospora crassa, Assay Type: Forward gene mutation, Assay Code: NEF+, Evaluation Type: Evaluation A (Pre-1980)); “active; positive” (Species/Cell Type: Saccharomyces cerevisiae, Assay Type: Mitotic recombination or gene conversion, Assay Code: YEH+, Evaluation Type: Evaluation A (Pre-1980)); “active; positive” (Species/Cell Type: Salmonella typhimurium (one or more of the five standard strains: TA98, TA100, TA1535, TA1537, and TA1538), Assay Type: Histidine reverse gene mutation, Ames assay, Assay Code: SAL+, Evaluation Type: Evaluation A (Pre-1980)). In addition, the call under setting [6] is “active; positive”.

On to `C[CH2][Pb]([Cl])([CH2]C)[CH2]C`, for which the mutagenic call is, setting by setting: (Species/Cell Type: Drosophila melanogaster, Assay Type: Aneuploidy, sex chromosome gain, chromosome aberrations, Assay Code: DAG-M, Evaluation Type: Evaluation A (Pre-1980)) “inactive; negative”; (Species/Cell Type: Drosophila melanogaster, Assay Type: Aneuploidy, whole sex chromosome loss, chromosome aberrations, Assay Code: DAC+M, Evaluation Type: Evaluation A (Pre-1980)) “active; positive”.

As for `Cc1ccc([N+](=O)[O-])o1`, the mutagenic call (Species/Cell Type: Bacillus subtilis (H17 vs M45T), Assay Type: Rec-assay, spot test, DNA effects (bacterial DNA repair), Assay Code: REX+, Evaluation Type: Evaluation A (Pre-1980)) was “active; positive” and the mutagenic call under setting [7] is “active; positive”.

For the compound `CC1(C)O[C@@H]2C[C@H]3[C@@H]4C[C@H](F)C5=CC(=O)C=C[C@]5(C)[C@@]4(F)[C@@H](O)C[C@]3(C)[C@]2(C(=O)CO)O1`, the mutagenic call under setting [3] was “active; positive”.

As for `CC(=O)Nc1ccc(/C=C/c2ccccc2)cc1`, the mutagenic call was “inactive; negative” under setting [4] and “active; positive” under setting [8].

With `Nc1cccc2cc3ccccc3cc12`, the mutagenic call by setting is: under setting [9], “no conclusion”; (Species/Cell Type: Fischer rat embryo (RLV/1706) cells, Assay Type: Cell transformation, viral enhanced, Assay Code: CTR-, Evaluation Type: Evaluation A (Pre-1980)) “inactive; negative”; under setting [10], “inactive; positive without activation, negative with activation”; under setting [8], “active; positive”; (Species/Cell Type: Salmonella typhimurium, Assay Type: Forward and reverse gene mutation, host-mediated assay, Assay Code: HMA-, Evaluation Type: Evaluation A (Pre-1980)) “inactive; negative”; under setting [11], “inactive; negative”.

On to `CC(N)=S`, for which the mutagenic call reads like this: (Species/Cell Type: Drosophila melanogaster, Assay Type: Sex-linked recessive lethal gene mutation, Assay Code: SRL+, Evaluation Type: Evaluation A (Pre-1980)) “active; positive”; (Species/Cell Type: Escherichia coli polA (W3110 vs P3478), Assay Type: Rec-assay, DNA effects (bacterial DNA repair), Assay Code: RE2-, Evaluation Type: Evaluation A (Pre-1980)) “inactive; negative”; under setting [9], “no conclusion”; under setting [1], “active; positive”; under setting [5], “active; positive”; under setting [2], “active; positive”. Further, the mutagenic call is “inactive; negative” (Species/Cell Type: Mouse, Sex: Male, Assay Type: Sperm morphology, Assay Code: SPI-, Evaluation Type: Evaluation A (Pre-1980)); “inactive; positive without activation, negative with activation” under setting [10]; “inactive; negative” (Species/Cell Type: Salmonella typhimurium (one or more of the five standard strains: TA98, TA100, TA1535, TA1537, and TA1538), Assay Type: Histidine reverse gene mutation, Ames assay, Assay Code: SAL-, Evaluation Type: Evaluation A (Pre-1980)); “active; positive” (Species/Cell Type: Salmonella typhimurium, Assay Type: Forward and reverse gene mutation, host-mediated assay, Assay Code: HMA+, Evaluation Type: Evaluation A (Pre-1980)); “active; positive” under setting [7]. Moreover, the call under setting [6] is “active; positive”.

Consider `CCCCOc1ccc(CC(=O)NOC=O)cc1`, for which the mutagenic call (Species/Cell Type: Nonhuman, Assay Type: Sister-chromatid exchange (SCE) in vitro, Assay Code: SC2+D, Dose Response: With dose response, Evaluation Type: Evaluation B (Post-1980)) is “active; positive”.

Regarding `C#C[C@]1(O)CC[C@H]2[C@@H]3CCc4cc(O)ccc4[C@H]3CC[C@@]21C`, the mutagenic call is, setting by setting: under setting [1], “active; positive”; (Species/Cell Type: Mouse (BALB/c-3T3) cells, Assay Type: Cell transformation, Assay Code: CTB-, Evaluation Type: Evaluation A (Pre-1980)) “inactive; negative”; under setting [11], “inactive; negative”. The call under setting [6] was “active; positive”.
